Source: patent EP2662079A1 (Ordway Research Institute, Inc., priority 2012, dated 2013)
Where “and” joins values, the source holds several entries; their conditions need not be identical. Equal values may be shown once.

Tests used:
[1] = system: transplantable liver tumor; settings: PTU alone; cited from earlier work
glioblastoma (GBM) = settings: mild hypothyroidism induced by PTU; cited from earlier work
Matrigel plugs = test: Mouse Matrigel model of angiogenesis (plug hemoglobin); format: in vivo, mice (C57BL/6NCr); settings: for Inhibition of FGF induced angiogenesis (grade): mouse matrigel model
Experimental: Normal male mice (C57BL/6NCr) 6-8 weeks of age and weighing ~20 g were purchased from Taconic farm. Animals were housed 4 per cage, in controlled conditions of temperature (20-24 °C); humidity (60-70%) and 12 hrs. light/dark cycle provided with food and water ad libitum. […] Matrigel (BD Bioscience, San Jose CA) was thawed overnight at 4 °C and placed on ice. Aliquots of matrigel were placed into cold polypropylene tubes to prevent the matrigel from solidifying and the angiogenesis promoter added to matrigel with or without agonist. Mice were treated daily. Matrigel was subcutaneously injected as triple injection per animal at 100 µL/animal. At day 14 post plug implant all animals were killed in CO2 chamber and matrigel plugs were collected. […]
The matrigel plugs dissected from the mice were carefully stripped of any remaining peritoneum. The plugs were placed into 0.5 mL tube of ddH2O and homogenized for 5-10 min. […] Absorbance was read with a Microplate Manager ELISA reader at 540 nm. […] Hemoglobin concentration is a reflection of the number of blood vessels in the plugs.

[2] = system: chick chorioallantoic membrane (CAM); test: Chorioallantoic membrane (CAM) model of angiogenesis; format: in vivo; settings: for Mean Branch points: n=8
Experimental: In vivo neovascularization was examined by methods described previously. 9-12 Ten-day-old chick embryos were purchased from SPAFAS (Preston, CT) and incubated at 37°C with 55% relative humidity. A hypodermic needle was used to make a small hole in the shell concealing the air sac, and a second hole was made on the broad side of the egg, directly over an avascular portion of the embryonic membrane that was identified by candling. A false air sac was created beneath the second hole by the application of negative pressure at the first hole, causing the CAM to separate from the shell. A window approximately 1.0 cm^2 was cut in the shell over the dropped CAM with a small-crafts grinding wheel (Dremel, division of Emerson Electric Co.), allowing direct access to the underlying CAM. FGF2 (1µg/mL) was used as a standard proangiogenic agent to induce new blood vessel branches on the CAM of 10-day-old embryos. Sterile disks of No. 1 filter paper (Whatman International) were pretreated with 3 mg/mL cortisone acetate and 1 mmol/L PTU and air dried under sterile conditions. Thyroid hormone, hormone analogs, FGF2 or control solvents, and inhibitors were then applied to the disks and the disks allowed to dry. The disks were then suspended in PBS and placed on growing CAMs. […] At 24 hours, the MAPK cascade inhibitor PD 98059 was also added to CAMs topically by means of the filter disks.
After incubation at 37°C with 55% relative humidity for 3 days, the CAM tissue directly beneath each filter disk was resected from control and treated CAM samples. Tissues were washed 3X with PBS, placed in 35-mm Petri dishes (Nalge Nunc), and examined under an SV6 stereomicroscope (Zeiss) at X50 magnification. Digital images of CAM sections exposed to filters were collected using a 3-charge-coupled device color video camera system (Toshiba) and analyzed with Image-Pro software (Media Cybernetics). The number of vessel branch points contained in a circular region equal to the area of each filter disk were counted. One image was counted in each CAM preparation, and findings from 8 to 10 CAM preparations were analyzed for each treatment condition (thyroid hormone or analogs, FGF2, FGF2 antibody, PD 98059). In addition, each experiment was performed 3 times. The resulting angiogenesis index is the mean ± SEM of new branch points.

[3] = cited from earlier work
ERK1/2 = test: MAPK activation (nuclear phosphorylated ERK1/2 immunoblot); format: cell-based; settings: for effect on MAPK activation by T4: PD 98059 30 µmol/L or CGP41251 100 nmol/L for 30 minutes, then 10^-7 M T4
Experimental: ECV304 endothelial cells were cultured in M199 medium with 0.25% hormone-depleted serum 13 for 2 days. […] Nuclear fractions were pre-pared from all samples by the method reported previously (see Li et al., Carcinogenesis 29:62-69 (2008)), the proteins separated by polyacrylamide gel electrophoresis, and transferred to membranes for immunoblotting with antibody to phosphorylated ERK 1/2.

FGF2 cDNA = test: RT-PCR of FGF2 in ECV304 cells; format: cell-based; settings: T4 10^-7 mol/L for 6 to 48 hours
Experimental: RNA (1 µg) was subjected to reverse transcription-polymerase chain reaction (RT-PCR) using the Access RT-PCR system (Promega). Total RNA was reverse transcribed into cDNA at 48°C for 45 minutes, then denatured at 94°C for 2 minutes. Second-strand synthesis and PCR amplification were performed for 40 cycles with denaturation at 94°C for 30 s, annealing at 60°C for 60 s, and extension at 68°C for 120 s, with final ex-tension for 7 minutes at 68°C after completion of all cycles. PCR primers for FGF2 were as follows: FGF2 sense strand 5'-[…]-3' (SEQ ID NO:1), antisense strand 5' […]-3' (SEQ ID NO:2); the length of the PCR product was 734 bp. Primers for GAPDH included the sense strand 5'-[…]-3' (SEQ ID NO:3), and antisense strand 5'-[…]-3' (SEQ ID NO:4); the length of the PCR product was 218 bp. […] The target bands of the gel were quantified using LabImage software (Kapelan), and the value for [FGF2/GAPDH]X10 calculated for each time point.

ECV304 endothelial cells = test: FGF2 release from ECV304 endothelial cells (ELISA); format: cell-based
Experimental: ECV304 endothelial cells were cultured in M199 medium supplemented with 10% fetal bovine serum. […] After 72 hours, the supernatants were harvested and assays for FGF performed without dilution using a commercial ELISA system (R&D Systems) (See Davis et al., Circ Res 94:1500-1506 (2004)).

[4] = FGF 100 ng + compound 10 µg/plug, n= 7-14
[5] = CAM model, FGF (1.25 µg/ml) + compound at 10 µg/plug

With `CCCc1cc(=O)[nH]c(=S)[nH]1` [PTU, 6-N-propyl-2-thiouracil] as the compound, how does the “growth rate versus control neoplasms” value [1] read?
The value was “no difference in growth rate”.

And the “improvement of the duration of survival” value (glioblastoma (GBM))?
Its value is 3 fold.

With `CC(C)(C)OC(=O)NC(Cc1cc(I)c(Oc2cc(I)c(OCC3CO3)c(I)c2)c(I)c1)C(=O)OCC1CO1` (centres unmarked) [T4 analog 14, Oxiran-2-ylmethyl-2-(tert-butoxycarbonylamino)-3-(4-(3,5-diiodo-4-(oxiran-2-ylmethoxy)phenoxy)-3,5-diiodophenyl)propanoate] as the compound, how does the “Hemoglobin (mg/mL)± SEM” value (Matrigel plugs; 10 µg/matrigel plug, n= 6-7) read?
Its value is 0.3 ± 0.1 mg/mL.

With `CNC(Cc1cc(I)c(Oc2cc(I)c(O)c(I)c2)c(I)c1)C(=O)[O-].O.O.[K+]` (centres unmarked) [T4 analog 10, Potassium 3-[4-(4-hydroxy-3,5-diiodophenoxy)-3,5-diiodophenyl]-2-(methylamino)propanoate dihydrate] as the compound, how does the “Hemoglobin (mg/mL)± SEM” value (Matrigel plugs; 10 µg/matrigel plug, n= 6-7) read?
The value was 0.8 ± 0.2 mg/mL.

For `N[C@@H](Cc1cc(I)c(Oc2cc(I)c(O)c(I)c2)c(I)c1)C(=O)O` [T4, L-thyroxine], which “generation of new blood vessels from existing vessels promoted” value ([2]; 10^7-10-^9 M) is on record?
Its value is “two- to three-fold”.

And the “Branch pts ± SEM” value ([2]; CAM assay before conjugation, 0.1 µM)?
The value was 137.3 ± 8.8.

And the increase in angiogenesis ([2]; CAM model, 3 experiments (Figure 5A))?
The increase in angiogenesis was 1.5 fold.

What about the “Mean % of stimulation (comparing to PBS)” value ([2]; CAM model, 0.1 µM) of the same compound?
Its value is 87.7 ± 7%.

And the “Mean Branch points” value ([2]; CAM model, 0.1 µM, mean ± SEM)?
Its value is 137± 8.

What about the “ANGIOGENESIS INDEX” value ([2]; CAM model, 0.1uM, n = 8 per group) of the same compound?
The value was 143.8 ± 7.9.

What about the “increase in blood vessel branch formation” value ([2]; T4 0.1 µmol/L for 3 days) of the same compound?
Its value is 2.5 fold and 2.3 fold.

And the “pKa of the COOH (carboxylic acid) group” value [3]?
Its value is roughly 2.0.

And the “pKa of the NH2 (amino) group” value [3]?
Its value is “approximately 9.0”.

What about the “pKa of the PhOH (phenol) group” value ([3]; fluorescent quenching) of the same compound?
The value was 6.2.

And the “appearance of phosphorylated ERK1/2 in cell nuclei” value (ERK1/2; T4 10^-7 mol/L)?
The value was no more than 15 min.

And the “Hemoglobin (mg/mL)± SEM” value (Matrigel plugs; T4 (0.1 µM))?
The value was 0.9 ± 0.2 mg/mL.

What about the “Mean stimulation of angiogenesis (%)” value (Matrigel plugs; T4 (0.1 µM)) of the same compound?
The value was 100±22%.

And the “Hemoglobin (mg/mL)± SEM” value (Matrigel plugs; T4 alone, 10 µg/matrigcl plug, n= 25)?
The value was 1.2 ± 0.4 mg/mL.

And the “increase in abundance of FGF2 cDNA, corrected for GAPDH content” value (FGF2 cDNA)?
Its value is “apparent by 6 hours”.

What about the “increase of FGF2 concentration in the medium” value (ECV304 endothelial cells; T4 (0.1 µmol/L) or T3 (0.01 µmol/L) for 3 days) of the same compound?
The value was 1.4 fold.

And the “FGF2 (pg/mL/10^6 cells)” value (ECV304 endothelial cells; T4 (0.1 µmol/L), 3 days)?
The value was 39.2 ±2.8 pg/mL/10^6 cells.

What does the source list for `CC(C)[Si](OC(=O)Cc1cc(I)c(Oc2cc(I)c(O)c(I)c2)c(I)c1)(C(C)C)C(C)C` [Tetrac analog 5, Triisopropylsilyl-2-(4-(4-hydroxy-3,5-diiodophenoxy)-3,5-diiodophenyl)acetate]?
Hemoglobin (mg/mL)± SEM (Matrigel plugs; [4]): 0.2 ± 0.1 mg/mL; Inhibition of FGF induced angiogenesis (grade) (Matrigel plugs): strong (compounds were considered to be strong inhibitors if they achieved more than 50% inhibition as compared to the control)

Which “effect on blood vessel branching caused by T3 and T4” value ([2]; 3 µmol/L PD 98059) does the source give for `COc1cccc(-c2cc(=O)c3ccccc3o2)c1N` [PD 98059] here?
The value was “completely blocked”.

And the “effect on MAPK activation by T4” value (ERK1/2)?
The value was “inhibited”.

With `O=C(Cc1cc(I)c(Oc2cc(I)c(O)c(I)c2)c(I)c1)NC1CCCCC1` [Tetrac analog 4, N-cyclohexyl-2-(4-(4-hydroxy-3.5-diiodophenoxy)-3,5-diiodophenyl)acetamide] as the compound, how does the “Hemoglobin (mg/mL)± SEM” value (Matrigel plugs; [4]) read?
Its value is 0.2 ± 0.1 mg/mL.

What about the “Inhibition of FGF induced angiogenesis (grade)” value (Matrigel plugs) of the same compound?
Its value is “strong (compounds were considered to be strong inhibitors if they achieved more than 50% inhibition as compared to the control)”.

What does the source list for `O=C(Cc1cc(I)c(Oc2cc(I)c(OCC3CO3)c(I)c2)c(I)c1)NC1CCCCC1` (centres unmarked) [Tetrac analog 6, N-cyclohexyl-2-(4-(3,5-diiodo-4-(oxiran-2-ylmethoxy)phenoxy)-3,5-diiodophenyl)acetamide]?
Hemoglobin (mg/mL)± SEM (Matrigel plugs; [4]): 0.7 ± 0.1 mg/mL; Inhibition of FGF induced angiogenesis (grade) (Matrigel plugs): strong (compounds were considered to be strong inhibitors if they achieved more than 50% inhibition as compared to the control)

With `CC(C)(C)OC(=O)Cc1cc(I)c(Oc2cc(I)c(O)c(I)c2)c(I)c1` [Tetrac analog 3, tert-Butyl-2-(4-(4-hydroxy-3,5-diiodophenoxy)-3,5-diiodophenyl)acetate] as the compound, how does the “Mean % Inhibition” value [2, 5] read?
The value was 88±13%.

What about the “Mean Branch points” value [2, 5] of the same compound?
Its value is 79±7.

What about the “Hemoglobin (mg/mL)± SEM” value (Matrigel plugs; [4]) of the same compound?
Its value is 0.4 ± 0.1 mg/mL.

And the “Inhibition of FGF induced angiogenesis (grade)” value (Matrigel plugs)?
Its value is “strong (compounds were considered to be strong inhibitors if they achieved more than 50% inhibition as compared to the control)”.

For `CO[C@@H]1[C@H](N(C)C(=O)c2ccccc2)C[C@H]2O[C@]1(C)n1c3ccccc3c3c4c(c5c6ccccc6n2c5c31)C(=O)NC4` [CGP41251], which “effect on MAPK activation by T4” value (ERK1/2) is on record?
Its value is “blocked”.

Which “Mean % of stimulation (comparing to PBS)” value ([2]; CAM model, 0.1 µM) does the source give for `CCNC(Cc1cc(I)c(Oc2cc(I)c(O)c(I)c2)c(I)c1)C(=O)O` (centres unmarked) [T4 analog 11, 2-(Ethylamino)-3-[4-(4-hydroxy-3,5-diiodophenoxy)-3,5-diiodophenyl]propanoic acid] here?
The value was 86.3 ± 9.4%.

What about the “Mean Branch points” value ([2]; CAM model, 0.1 µM, mean ± SEM) of the same compound?
The value was 136± 12.8.

And the “Mean stimulation of angiogenesis (%)” value (Matrigel plugs; 10 µg/matrigel plug)?
The value was 45±33%.

And the “Hemoglobin (mg/mL)± SEM” value (Matrigel plugs; 10 µg/matrigel plug, n= 6-7)?
The value was 0.6 ± 0.2 mg/mL.
